The source of these data is EP1169036B1, “ANTI-VIRAL USES OF LEFLUNOMIDE PRODUCTS” (priority 1998, dated 1999).

Read-outs that look alike come from different tables or passages of the source. Bounds are passed on as bounds.

What is called IC50 is the concentration at which inhibition is half-maximal. A word on the EC50: it is the concentration at which the effect is half-maximal.

Data set [1] relates to African green monkey kidney (CV-1) cells. The data set is described as follows: cells. In kind it is cell-based. As to conditions: Chlorocebus sabaeus, read-out: CPE Inhibition test IC50.
Data set [2] concerns Parainfluenza Type 3 Virus. Briefly: organism not typed. It counts as cell-based. To be noted: MA104; read-out: CPE Inhibition test EC50.
Data set [3] deals with Parainfluenza Type 3 Virus. The data set is described as follows: organism not typed. It counts as cell-based. To be noted: MA104; read-out: Neutral Red Uptake test EC50.
Data set [4] concerns Madin Darby canine kidney (MDCK) cells. The data set is described as follows: cells. In kind it is cell-based. To be noted: Canis lupus familiaris, cytotoxic concentration, positive control drug = ribavirin, read-out: Neutral Red Uptake test IC50.
For data set [5] the test system is unchanged. Briefly: cells. It counts as cell-based. As to conditions: Canis lupus familiaris, cytotoxic concentration, positive control drug = ribavirin, read-out: CPE Inhibition test IC50.
The subject of data set [6] is Respiratory Syncytial Virus A. The data set is described as follows: microbe, parasite or virus in culture. As to conditions: human respiratory syncytial virus, MA104; read-out: CPE Inhibition test EC50. It counts as cell-based.
For data set [7], the system named is African green monkey kidney (MA-104) cells. Briefly: Cytotoxicity, neutral red uptake by toxicity control cells. In kind it is cell-based. To be noted: Chlorocebus sabaeus, read-out: Neutral Red Uptake test IC50.
Data set [8] relates to Measles Virus. Briefly: microbe, parasite or virus in culture. In kind it is cell-based. As to conditions: Measles morbillivirus, CV-1; read-out: Neutral Red Uptake test EC50.
Data set [9] concerns Measles Virus. The data set is described as follows: microbe, parasite or virus in culture. It counts as cell-based. To be noted: Measles morbillivirus, CV-1; read-out: CPE Inhibition test EC50.
In data set [10] the test system is African green monkey kidney (MA-104) cells. The data set is described as follows: cells. In kind it is cell-based. As to conditions: Chlorocebus sabaeus, MA104, cytotoxic concentration, run with Respiratory Syncytial Virus A; positive control drug = ribavirin; read-out: CPE Inhibition test IC50.
In data set [11] the test system is Respiratory Syncytial Virus A. The data set is described as follows: microbe, parasite or virus in culture. In kind it is cell-based. As to conditions: human respiratory syncytial virus, MA104; read-out: Neutral Red Uptake test EC50.
In data set [12] the test system is African green monkey kidney (CV-1) cells. Briefly: cells. It counts as cell-based. To be noted: Chlorocebus sabaeus, read-out: Neutral Red Uptake test IC50.
For data set [13] the following is noted: in vivo; cited from earlier work.
For data set [14], the system named is hepatitis C. Briefly: Clinical treatment of a patient with chronic hepatitis C, viral load by quantitative PCR. In kind it is in vivo, human. How it is done: The patient is a person who received a liver transplant in January 1990 for hepatitis C. Over the following nine years they developed indolent hepatitis C with mildly elevated liver enzymes. Because of slowly progressive kidney impairment, presumably related to a combination of chronic hepatitis C and long term cyclosporine A treatment, they were started on leflunomide treatment. […] After an initial leflunomide loading dose of 300 mg daily for two days, a maintenance dose of 50 mg daily was started.
As the new treatment regimen was implemented, their kidney function improved; their serum creatinine fell from 3.6 mg/dl to 2.2 mg/dl and their BUN fell from 94 mg/dl to 55 mg/dl. Just before leflunomide was begun their hepatitis C viral load in peripheral blood was 3,120,000 copies, measured by quantitative PCR (Quest Diagnostics). After six weeks of therapy with leflunomide, their hepatitis C viral load had fallen to 1,480,000 copies, measured by the same PCR methodology.

The subject of data set [15] is rat CMV (RCMV RA67, Maastricht strain). Briefly: Viral load in nude rats inoculated with rat CMV, plaque assay of tissue homogenates. It counts as in vivo, immunodeficient nude rats. To be noted: leflunomide 15 mg/kg/day for 14 days, 14 days post-inoculation.
For data set [16], the system named is CMV strain VHL/E or strain BUR/E. In kind it is cell-based. As to conditions: HUVEC, A771726 200 µM, CsA 100 ng/ml, FK 506 1 ng/ml.
For data set [17], the system named is CMV DNA. In kind it is cell-based. To be noted: CMV-infected HFF (100 µM A771726) , identical in HUVEC (200 µM); 1 mM PFA; 48 hours.
Data set [18] addresses T1, CMV DNA polymerase (Human cytomegalovirus, UniProt P08546).
T1 construct: Crude protein extracts prepared from CMV-infected HUVEC or HFF; endogenous in cells; host or cells: HUVEC infected with CMV VHL/E or BUR/E, and HFF infected with CMV P8; Cells were sonicated and the clarified crude lysate was used
In kind it is biochemical. To be noted: extracts of VHL/E-infected HUVEC or P8-infected HFF; PFA result at 1 mM.

For data set [19], the system named is CMV strain VHL/E. The data set is described as follows: Immunohistochemical staining of CMV proteins in infected HUVEC. It counts as cell-based. The protocol: Experiments were conducted to determine at which point in the viral replication cycle leflunomide exerts its inhibitory effects. Immediately upon penetration of the host cell, CMV lower matrix protein pp65, a component of the viral tegument, translocates to the cell nucleus. Although the nuclear function of pp65 remains to be resolved, another tegument protein (pp71) that migrates in a similar manner acts in concert with cellular proteins to promote rapid transcription of immediate early (IE) viral genes. IE gene products are primarily regulatory, activating early gene transcription, whose products are essential for viral DNA replication. Activation of late genes, which code primarily for structural protein components of the virion, occurs late in the replicative cycle and is dependent upon viral DNA replication.
To localize potential A771726-induced lesions in this temporal series of events, a cross section of CMV proteins in infected cells was first visualized by immunohistochemical staining as follows. CMV strain VHL/E-inoculated HUVEC monolayers incubated in the presence or absence of 200 µM A771726 or 1 mM phosphonoformate (PFA) (as a positive control for late antigen inhibition) were fixed at various intervals and stained with mAb specific for pp65, 72 kD IE1, or late structural glycoprotein B (gB). […]

T1 sequence (P16790 whole entry): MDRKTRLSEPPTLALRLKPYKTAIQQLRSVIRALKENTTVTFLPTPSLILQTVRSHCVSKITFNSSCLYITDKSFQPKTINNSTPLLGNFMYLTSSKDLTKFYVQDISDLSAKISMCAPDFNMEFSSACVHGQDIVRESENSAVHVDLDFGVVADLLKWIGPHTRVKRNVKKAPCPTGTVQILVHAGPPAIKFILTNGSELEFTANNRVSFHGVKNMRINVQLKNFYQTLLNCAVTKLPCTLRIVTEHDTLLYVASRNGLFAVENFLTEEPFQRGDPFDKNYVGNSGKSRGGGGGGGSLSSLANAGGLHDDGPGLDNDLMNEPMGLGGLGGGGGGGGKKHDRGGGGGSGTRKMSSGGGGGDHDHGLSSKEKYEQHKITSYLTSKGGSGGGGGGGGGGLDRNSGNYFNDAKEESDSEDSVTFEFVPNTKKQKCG
T1 sequence (P08546 whole entry): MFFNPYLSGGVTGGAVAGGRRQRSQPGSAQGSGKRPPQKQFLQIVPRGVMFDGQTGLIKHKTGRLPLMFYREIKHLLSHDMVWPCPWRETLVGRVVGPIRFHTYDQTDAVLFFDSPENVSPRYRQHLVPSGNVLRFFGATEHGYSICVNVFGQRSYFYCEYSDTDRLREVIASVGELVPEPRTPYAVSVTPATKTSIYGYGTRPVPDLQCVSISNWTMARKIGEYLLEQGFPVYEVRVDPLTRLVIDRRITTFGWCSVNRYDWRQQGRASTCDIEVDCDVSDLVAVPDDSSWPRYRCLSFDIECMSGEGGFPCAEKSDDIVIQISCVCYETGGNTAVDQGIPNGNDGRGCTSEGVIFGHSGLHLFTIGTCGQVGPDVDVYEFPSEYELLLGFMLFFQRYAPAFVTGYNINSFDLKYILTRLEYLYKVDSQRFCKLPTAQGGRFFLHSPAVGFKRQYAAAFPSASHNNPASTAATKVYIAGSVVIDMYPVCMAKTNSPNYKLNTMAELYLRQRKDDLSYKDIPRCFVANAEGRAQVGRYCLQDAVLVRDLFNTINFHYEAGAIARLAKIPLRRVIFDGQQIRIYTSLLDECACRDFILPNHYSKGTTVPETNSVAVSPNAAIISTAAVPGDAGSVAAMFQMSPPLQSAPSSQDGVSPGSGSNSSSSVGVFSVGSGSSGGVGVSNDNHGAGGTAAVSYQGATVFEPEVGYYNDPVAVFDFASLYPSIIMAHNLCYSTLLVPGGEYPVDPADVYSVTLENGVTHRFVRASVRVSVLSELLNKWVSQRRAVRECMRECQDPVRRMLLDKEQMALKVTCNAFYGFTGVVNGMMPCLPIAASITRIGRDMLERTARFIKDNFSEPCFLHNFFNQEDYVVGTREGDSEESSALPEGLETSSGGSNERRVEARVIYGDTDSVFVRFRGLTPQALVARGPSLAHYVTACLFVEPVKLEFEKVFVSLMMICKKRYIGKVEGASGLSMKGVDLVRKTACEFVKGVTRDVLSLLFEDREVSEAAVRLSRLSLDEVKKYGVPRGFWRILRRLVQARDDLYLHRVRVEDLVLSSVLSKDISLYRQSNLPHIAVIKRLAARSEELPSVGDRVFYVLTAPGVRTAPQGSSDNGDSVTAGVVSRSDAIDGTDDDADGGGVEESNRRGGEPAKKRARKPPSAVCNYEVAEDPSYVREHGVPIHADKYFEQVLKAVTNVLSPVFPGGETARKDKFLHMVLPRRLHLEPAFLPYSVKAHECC

On to `Cc1oncc1C(=O)Nc1cccc(C(F)(F)F)c1` [Compound 99-127, N-(3-trifluoromethylphenyl)-5-methylisoxazol-4-carboxamide], for which the IC50 was 60 µM in data set [1]; 66 µM in data set [4] (run with Influenza A (H1N1)); 46 µM in data set [4] (run with Influenza A (H3N2)); 60 µM in data set [4] (run with Influenza B); above 200 µM in data set [5] (run with Influenza A (H1N1)); 63 µM in [5] (run with Influenza A (H3N2)). The half-maximal inhibitory concentration (IC50) in data set [5] (run with Influenza B) is above 200 µM; in data set [7] (MA104, cytotoxic concentration, run with Parainfluenza Type 3 Virus, positive control drug = ribavirin), 15 µM; in [7] (MA104), 20 µM; in data set [10], 30 µM; in [12] it was 30 µM. The EC50 in data set [2], in data set [3], in data set [6], in data set [8], in data set [9] and in data set [11] was above 100 µM each time.

In the case of `Nc1ccn(C[C@@H](CO)OCP(=O)(O)O)c(=O)n1` [Cidofovir], the “Neutropenia, share of recipients” value in [13] is recorded as “approximately 10%”.

As to `Cc1oncc1C(=O)Nc1ccc(C(F)(F)F)cc1` [leflunomide, N-(4-trifluoromethylphenyl)-5-methylisoxazol-4-carboxamide], the “hepatitis C viral load in peripheral blood” value in data set [14] (after six weeks of leflunomide (300 mg daily two days, then 50 mg daily), 3,120,000 copies before) is reported as 1,480,000 copies. For the same compound, in [14] (one patient, six weeks of leflunomide therapy), the “drop in hepatitis C viral load” value worked out at 50%. The “viral load in salivary gland, lung and spleen” value in [15] is recorded as “significantly reduced viral load”.

With `C=CC[C@@H]1/C=C(\C)C[C@H](C)C[C@H](OC)[C@H]2O[C@@](O)(C(=O)C(=O)N3CCCC[C@H]3C(=O)O[C@H](/C(C)=C/[C@@H]3CC[C@@H](O)[C@H](OC)C3)[C@H](C)[C@@H](O)CC1=O)[C@H](C)C[C@@H]2OC` [FK 506, tacrolimus], the “production of infectious virus (CMV production)” value in data set [16] is given as “no significant inhibition”.

Take `O=C([O-])P(=O)(O)O.[Na+]` [PFA, sodium phosphonoformate]: in data set [17], the “quantities of viral DNA synthesized” value is recorded as “no detectable CMV DNA”. The “viral DNA polymerase activity” value in data set [18] is recorded as “complete inhibition”. In addition, in data set [13], the “toxicities (renal dysfunction, hypomagnesemia, hypokalemia, hypocalcemia, seizures, fever, rash), each, share of recipients” value is “more than 5%”. The “expression of viral proteins pp65, IE1, gB” value in data set [19] (200 µM A771726 or 1 mM PFA, 24, 48, 96 hours pi) was “unable to express gB”. Also, the “pp65 and IE1 expression” value in data set [19] (1 mM PFA) is reported as “unimpeded”.
